For 23 compounds, MIC results are on record in ChEMBL document CHEMBL2331373, “Synthesis and antitubercular activity of amino alcohol fused spirochromone conjugates” (2013).

In brackets after ≈: the same amount, converted by molar mass. Bounds are passed on as bounds.

For this assay, the system named is Mycobacterium tuberculosis. Kind of assay: Antimycobacterial activity against Mycobacterium tuberculosis H37Rv ATCC 27294 by agar dilution method. Format: functional. In general terms: In agar dilution, organisms are placed on agar that contains the substance at set levels.

On to `COc1ccc(NCC(O)COc2ccc3c(c2)OC2(CCCC2)CC3=O)cc1` (stereo not drawn), for which the MIC (commonly the smallest concentration in the dilution series that meets the test's criterion for growth inhibition) was 25 mg/L (≈ 62.9 µM).

In turn, `CC(C)c1ccc(NCC(O)COc2ccc3c(c2)OC2(CCN(C(=O)OC(C)(C)C)CC2)CC3=O)cc1` (stereo not drawn) gave an MIC of 12.5 mg/L (≈ 23.8 µM).

The compound `Cc1ccccc1NCC(O)COc1ccc2c(c1)OC1(CCCC1)CC2=O` (stereo not drawn) yielded an MIC of 12.5 mg/L (≈ 32.8 µM).

`O=C1CC2(CCCC2)Oc2cc(OCC(O)CNc3ccccc3Cl)ccc21` (stereo not drawn) displayed an MIC of 6.25 mg/L (≈ 15.6 µM).

Regarding `CC(C)c1ccccc1NCC(O)COc1ccc2c(c1)OC1(CCCC1)CC2=O` (stereo not drawn), the MIC came to 6.25 mg/L (≈ 15.3 µM).

With `COc1ccccc1NCC(O)COc1ccc2c(c1)OC1(CCCC1)CC2=O` (stereo not drawn), inhibition of growth (MIC) required 12.5 mg/L (≈ 31.4 µM).

The compound `O=C1CC2(CCCC2)Oc2cc(OCC(O)CNc3cccc(F)c3)ccc21` (stereo not drawn) came in with an MIC of 3.13 mg/L (≈ 8.12 µM).

Take `CC(C)c1ccc(NCC(O)COc2ccc3c(c2)OC2(CCCC2)CC3=O)cc1` (stereo not drawn): the MIC came to 6.25 mg/L (≈ 15.3 µM).

As to `O=C1CC2(CCCC2)Oc2cc(OCC(O)CNc3ccc([N+](=O)[O-])cc3O)ccc21` (stereo not drawn), the lowest concentration to inhibit growth (MIC) was 6.25 mg/L (≈ 14.6 µM).

Regarding `COc1ccc(CNCC(O)COc2ccc3c(c2)OC2(CCCC2)CC3=O)cc1` (stereo not drawn), the lowest concentration to inhibit growth (MIC) was 12.5 mg/L (≈ 30.4 µM).

`O=C1CC2(CCCC2)Oc2cc(OCC(O)CN3CCOCC3)ccc21` (stereo not drawn): the MIC is above 25 mg/L.

In the case of `O=C1CC2(CCCCC2)Oc2cc(OCC(O)CNc3ccccc3)ccc21` (stereo not drawn), the MIC was found to be 12.5 mg/L (≈ 32.8 µM).

As to `Cc1ccccc1NCC(O)COc1ccc2c(c1)OC1(CCCCC1)CC2=O` (stereo not drawn), the lowest concentration to inhibit growth (MIC) was 6.25 mg/L (≈ 15.8 µM).

As for `COc1ccccc1NCC(O)COc1ccc2c(c1)OC1(CCCCC1)CC2=O` (stereo not drawn), it took 12.5 mg/L (≈ 30.4 µM) to inhibit growth (MIC).

As to `COc1ccc(NCC(O)COc2ccc3c(c2)OC2(CCCCC2)CC3=O)cc1` (stereo not drawn), the MIC came out at 12.5 mg/L (≈ 30.4 µM).

`CC(C)c1ccc(NCC(O)COc2ccc3c(c2)OC2(CCCCC2)CC3=O)cc1` (stereo not drawn) registered an MIC of 6.25 mg/L (≈ 14.8 µM).

As for `CC(C)(C)OC(=O)N1CCC2(CC1)CC(=O)c1ccc(OCC(O)CNc3ccccc3)cc1O2` (stereo not drawn), the MIC is above 25 mg/L.

In the case of `Cc1ccccc1NCC(O)COc1ccc2c(c1)OC1(CCN(C(=O)OC(C)(C)C)CC1)CC2=O` (stereo not drawn), the MIC was 25 mg/L (≈ 50.3 µM).

With `COc1ccccc1NCC(O)COc1ccc2c(c1)OC1(CCN(C(=O)OC(C)(C)C)CC1)CC2=O` (stereo not drawn), the MIC turned out to be 25 mg/L (≈ 48.8 µM).

For the compound `COc1ccc(NCC(O)COc2ccc3c(c2)OC2(CCN(C(=O)OC(C)(C)C)CC2)CC3=O)cc1` (stereo not drawn), the MIC is above 25 mg/L.

`O=C1CC2(CCCC2)Oc2cc(OCC(O)CNc3ccccc3)ccc21` (stereo not drawn) registered an MIC of 25 mg/L (≈ 68 µM).

In turn, `CC[C@@H](CO)NCCN[C@@H](CC)CO` [ETHAMBUTOL] showed an MIC of 1.56 mg/L (≈ 7.64 µM).

The compound `CO[C@H]1/C=C/O[C@@]2(C)Oc3c(C)c(O)c4c(O)c(c(/C=N/N5CCN(C)CC5)c(O)c4c3C2=O)NC(=O)/C(C)=C\C=C\[C@H](C)[C@H](O)[C@@H](C)[C@@H](O)[C@@H](C)[C@H](OC(C)=O)[C@@H]1C` [RIFAMPIN] had an MIC of 0.2 mg/L (≈ 0.243 µM).
